Assay results reported in PubChem BioAssay (NCI).
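These data come from cells grown in 96-well plates and exposed to compound for 48 hours at five concentrations. GI50 is the concentration that inhibits growth by half. TGI: concentration producing complete growth inhibition.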

Experiments:
Assay in all cases: NCI-60 cell line screen, 48 h
MDA-MB-435 = tested on: MDA-MB-435
UACC-62 melanoma = tested on: UACC-62 melanoma
MOLT-4 leukemia = tested on: MOLT-4 leukemia
NCI-H23 lung = tested on: NCI-H23 lung
HOP-92 NSCLC = tested on: HOP-92 NSCLC
CCRF-CEM leukemia = tested on: CCRF-CEM leukemia
MALME-3M melanoma = tested on: MALME-3M melanoma
RXF 393 renal = tested on: RXF 393 renal
MCF7 breast = tested on: MCF7 breast
NCI-H460 lung = tested on: NCI-H460 lung
MDA-MB-231 breast = tested on: MDA-MB-231 breast
SN12C renal = tested on: SN12C renal
HL-60(TB) leukemia = tested on: HL-60(TB) leukemia
HT29 colon = tested on: HT29 colon
SNB-75 CNS = tested on: SNB-75 CNS
EKVX NSCLC = tested on: EKVX NSCLC
OVCAR-5 ovarian = tested on: OVCAR-5 ovarian
HCT-15 colon = tested on: HCT-15 colon
PC-3 prostate = tested on: PC-3 prostate
M14 melanoma = tested on: M14 melanoma
SK-MEL-5 melanoma = tested on: SK-MEL-5 melanoma
SK-MEL-28 melanoma = tested on: SK-MEL-28 melanoma
K-562 leukemia = tested on: K-562 leukemia
IGROV1 ovarian = tested on: IGROV1 ovarian
SF-295 CNS = tested on: SF-295 CNS
CAKI-1 renal = tested on: CAKI-1 renal
BT-549 breast = tested on: BT-549 breast
RPMI-8226 leukemia = tested on: RPMI-8226 leukemia
A549 NSCLC = tested on: A549 NSCLC
ACHN renal = tested on: ACHN renal
T-47D breast = tested on: T-47D breast
DU-145 prostate = tested on: DU-145 prostate
SNB-19 CNS = tested on: SNB-19 CNS
OVCAR-8 ovarian = tested on: OVCAR-8 ovarian
HCT-116 colon = tested on: HCT-116 colon
HOP-62 NSCLC = tested on: HOP-62 NSCLC
OVCAR-3 ovarian = tested on: OVCAR-3 ovarian
KM12 colon = tested on: KM12 colon
NCI/ADR-RES ovarian = tested on: NCI/ADR-RES ovarian
UACC-257 melanoma = tested on: UACC-257 melanoma
A498 renal = tested on: A498 renal
HCC-2998 colon = tested on: HCC-2998 colon
SK-MEL-2 melanoma = tested on: SK-MEL-2 melanoma
SF-539 CNS = tested on: SF-539 CNS
SK-OV-3 ovarian = tested on: SK-OV-3 ovarian
SF-268 CNS = tested on: SF-268 CNS
786-0 renal = tested on: 786-0 renal
COLO 205 colon = tested on: COLO 205 colon
SW-620 colon = tested on: SW-620 colon
HS 578T breast = tested on: HS 578T breast
TK-10 renal = tested on: TK-10 renal
LOX IMVI melanoma = tested on: LOX IMVI melanoma
NCI-H226 lung = tested on: NCI-H226 lung
SR leukemia = tested on: SR leukemia
OVCAR-4 ovarian = tested on: OVCAR-4 ovarian
U251 CNS = tested on: U251 CNS
NCI-H522 lung = tested on: NCI-H522 lung
UO-31 renal = tested on: UO-31 renal

## CCC(=C(c1ccc(OCCN2CCCCC2)cc1)c1ccc(OCCN2CCCCC2)cc1)c1ccc(Cl)cc1
MDA-MB-435
  GI50: 2610 nM
  TGI: 5.39 µM
UACC-62 melanoma
  GI50: 3.09 µM
  TGI: 6.2 µM
MOLT-4 leukemia
  GI50: 2770 nM
  TGI: > 16.7 µM
NCI-H23 lung
  GI50: > 16.7 µM
  TGI: > 16.7 µM
HOP-92 NSCLC
  GI50: 1570 nM
  TGI: > 16.7 µM
CCRF-CEM leukemia
  GI50: 1920 nM
  TGI: > 16.7 µM
MALME-3M melanoma
  GI50: 2720 nM
  TGI: 5.21 µM
RXF 393 renal
  GI50: 3.08 µM
  TGI: 16.6 µM
MCF7 breast
  GI50: 761 nM
  TGI: > 16.7 µM
NCI-H460 lung
  GI50: 5.7 µM
  TGI: > 16.7 µM
MDA-MB-231 breast
  GI50: 5.35 µM
  TGI: > 16.7 µM
SN12C renal
  GI50: > 16.7 µM
  TGI: > 16.7 µM
HL-60(TB) leukemia
  GI50: 3.41 µM
  TGI: 9.55 µM
HT29 colon
  GI50: 762 nM
  TGI: > 16.7 µM
SNB-75 CNS
  GI50: > 16.7 µM
  TGI: > 16.7 µM
EKVX NSCLC
  GI50: > 16.7 µM
  TGI: > 16.7 µM
OVCAR-5 ovarian
  GI50: > 16.7 µM
  TGI: > 16.7 µM
HCT-15 colon
  GI50: 1050 nM
  TGI: > 16.7 µM
PC-3 prostate
  GI50: > 16.7 µM
  TGI: > 16.7 µM
M14 melanoma
  GI50: 669 nM
  TGI: 2650 nM
SK-MEL-5 melanoma
  GI50: 2830 nM
  TGI: 5.3 µM
SK-MEL-28 melanoma
  GI50: 2800 nM
  TGI: 5.26 µM
K-562 leukemia
  GI50: 400 nM
  TGI: 1070 nM
IGROV1 ovarian
  GI50: 12.9 µM
  TGI: > 16.7 µM
SF-295 CNS
  GI50: 6.53 µM
  TGI: > 16.7 µM
CAKI-1 renal
  GI50: 5.74 µM
  TGI: > 16.7 µM
BT-549 breast
  GI50: > 16.7 µM
  TGI: > 16.7 µM
RPMI-8226 leukemia
  GI50: 3.6 µM
  TGI: > 16.7 µM
A549 NSCLC
  GI50: 7.42 µM
  TGI: > 16.7 µM
ACHN renal
  GI50: 7.12 µM
  TGI: > 16.7 µM
T-47D breast
  GI50: 9.62 µM
  TGI: > 16.7 µM
DU-145 prostate
  GI50: > 16.7 µM
  TGI: > 16.7 µM
SNB-19 CNS
  GI50: 5.91 µM
  TGI: > 16.7 µM
OVCAR-8 ovarian
  GI50: > 16.7 µM
  TGI: > 16.7 µM
HCT-116 colon
  GI50: 1560 nM
  TGI: > 16.7 µM
HOP-62 NSCLC
  GI50: > 16.7 µM
  TGI: > 16.7 µM
OVCAR-3 ovarian
  GI50: 11.2 µM
  TGI: > 16.7 µM
KM12 colon
  GI50: > 16.7 µM
  TGI: > 16.7 µM
NCI/ADR-RES ovarian
  GI50: > 16.7 µM
  TGI: > 16.7 µM
UACC-257 melanoma
  GI50: 3.47 µM
  TGI: 8.08 µM
A498 renal
  GI50: > 16.7 µM
  TGI: > 16.7 µM
HCC-2998 colon
  GI50: 2800 nM
  TGI: > 16.7 µM
SK-MEL-2 melanoma
  GI50: 9.5 µM
  TGI: > 16.7 µM
SF-539 CNS
  GI50: 2550 nM
  TGI: 5.02 µM
SK-OV-3 ovarian
  GI50: > 16.7 µM
  TGI: > 16.7 µM
SF-268 CNS
  GI50: 6.7 µM
  TGI: > 16.7 µM
786-0 renal
  GI50: 2510 nM
  TGI: 5.09 µM
COLO 205 colon
  GI50: 3.59 µM
  TGI: 9.01 µM
SW-620 colon
  GI50: 4.1 µM
  TGI: > 16.7 µM
HS 578T breast
  GI50: 4.23 µM
  TGI: > 16.7 µM
TK-10 renal
  GI50: > 16.7 µM
  TGI: > 16.7 µM
LOX IMVI melanoma
  GI50: 2310 nM
  TGI: 4.84 µM
NCI-H226 lung
  GI50: > 16.7 µM
  TGI: > 16.7 µM
SR leukemia
  GI50: 425 nM
  TGI: 1270 nM
OVCAR-4 ovarian
  GI50: > 16.7 µM
  TGI: > 16.7 µM
U251 CNS
  GI50: 3.42 µM
  TGI: > 16.7 µM
NCI-H522 lung
  GI50: 7.72 µM
  TGI: > 16.7 µM
UO-31 renal
  GI50: 2320 nM
  TGI: 7.87 µM
